Literature values, collected in US20250031694A1, “AGRICULTURAL CHEMICAL COMPOSITION AND METHOD FOR PRODUCING SAME” (MITSUI CHEMICALS CROP & LIFE SOLUTIONS, INC., priority 2021, published 2025).
In brackets after ≈: the same amount, converted by molar mass.

Settings: FAMIC agrochemical abstract

CCCOCCN(C(=O)CCl)c1c(CC)cccc1CC [pretilachlor]
water solubility (25° C.): 74 µg/mL (≈ 237 µM)

C=CCOC1=NS(=O)(=O)c2ccccc21 [probenazole]
water solubility (20° C.): 36.6 µg/mL (≈ 164 µM)

CC(=O)Oc1c(C)c(C)nc2c(F)cc(C(C)(C)C)cc12 [tebufloquin]
water solubility (20° C.): 20.2 µg/mL (≈ 69.8 µM)

CN1COCN(Cc2cnc(Cl)s2)/C1=N\[N+](=O)[O-] [thiamethoxam]
water solubility (25° C.): 4100 µg/mL (≈ 14100 µM)
